Holding throughout (assay type): cell-based
One experiment relates to HeLa cells. As to the kind of experiment: Necrosis assay. The conditions noted are these: Homo sapiens, 0.5 h, 30 min at 37° C., PrestoBlue, normalised to 4 10^−4 M PEP0005/ingenol mebutate, read-out: HeLa necrosis EC50 range. The protocol:
HeLa cells (ATCC CCL-002) were grown in minimal essential medium (Invitrogen catalog no. 42360) containing 10% fetal bovine serum, 100 IU/ml penicillin and 100 μg/ml streptomycin. 4,000-6,000 cells were seeded into 96-well black ViewPlates-plates, clear bottom, (Perkin Elmer) in 100 μl medium and incubated overnight. Compounds were dissolved and pre-diluted in DMSO in 96-well polypropylene plates (Greiner) in a concentration range of 15 μM to 600 μM. At the time of the experiment cell plates were placed on heating blocks at 37° C., medium was removed and 40 μl fresh, pre-warmed medium was added per well. Cells were incubated for 15 min before addition of compounds. In parallel, 3 μl of compounds were diluted with 197 μl growth medium on a Tecan freedom-EVO pipetting station using 250 μl/s pipetting speed, in order to ensure effective mixing of the highly concentrated compound solutions with the aqueous phase.
These pre-dilution plates were then equilibrated on heating blocks at 37° C. for 10 min. 80 μl pre-diluted compound were transferred manually to the corresponding wells containing HeLa cells yielding compound concentrations of 10 μM to 400 μM. Control conditions were 1% DMSO in growth medium (100% viability) and 400 μM ingenol mebutate in growth medium (0% viability). Plates were incubated on the heating blocks at 37° C. for 30 min. At the end of the incubation 10 μl PrestoBlue reagent (Invitrogen) were added to each well, plates were sealed with black seal, followed by incubation at 37° C. for 10 min with gentle shaking (150 rpm). Subsequently, plates were placed at room temperature for 20-30 min. Plates were read immediately after on an Envision Fluorescence reader (Perkin Elmer) with excitation at 535 nm and emission at 630 nm. Test compound titration curves were fitted to a four-parameter sigmoidal curve after normalizing the effect of the test compound to the effect of the positive control (4 10^−4 M PEP0005/ingenol mebutate). Abs EC50 denotes the concentration of test compound producing 50% effect.

Experiment [1] relates to Primary human epidermal keratinocytes, HeKa. As to the kind of experiment: HeKa cytokine release (IL-8). Conditions: 6 h at 37° C., normalised to 1.5×10^−7 M PEP0005, read-out: HeKa cytokine release (IL-8) Rel EC50 range. The protocol: Primary human epidermal keratinocytes, HeKa, are seeded (10.000 cells/well) in 96-well plates the day before the assay. Test compounds are diluted in DMSO (dimethyl sulfoxide) and further diluted in assay medium and pipetted into wells of 96 well-plates containing HeKa cells. The plates are incubated for 6 h at 37° C. in humidified air with 5% CO2. Plates are centrifuged briefly to spin down cells at 4° C., the supernatant is removed and analysed by Meso Scale Discovery (MSD) 4-spot cytokine assay (Pro-inflammatory II Ultra Sensitive kit, MSD, MD, USA). The MSD assay employs a sandwich immunoassay format where capture antibodies are coated in a patterned array on the bottom of the wells of a 4-Spot-Multi-MSD plate. Standard samples are incubated in the MULTI-SPOT plates as well, and the cytokine (IL-8) binds to its corresponding capture antibody spot. The cytokine level is quantitated on a SECTOR™ Imager using a cytokine-specific Detection Antibody labelled with MSD SULFO-TAG™ reagent.
Test compound titration curves are fitted to a four-parameter sigmoidal curve after normalizing the effect of the test compound to the effect of the positive control (1.5×10^−7 M PEP0005). Rel EC50 denotes the concentration of test compound producing an effect that is midway between the fitted top and bottom.

The subject of experiment [2] is PMN's (polymorphonuclear leukocytes). As to the kind of experiment: Neutrophil oxidative burst. The conditions noted are these: Leukocyte, 40 min; 40 min incubation at rt; normalised to 5×10^−7 M PEP0005; read-out: Neutrophil oxidative burst Rel EC50 range. The protocol:
PMN's (polymorphonuclear leukocytes) are isolated and purified from fresh buffy coats by sequential sedimentation, density centrifugation and lysis of contaminating erythrocytes. In brief, buffy coats are incubated with 2% methocel for 30-45 min to differentially sediment red blood cells. The leukocyte-rich supernatant is transferred to lymphoprep tubes to remove mononuclear cells by density centrifugation (400×g, 30 min). The pellet is resuspended and any remaining erythrocytes lysed using 0.2% NaCl for 30 sec before restoring isotonicity by the addition of 1.2% NaCl. This step is repeated until the cell pellet appears relatively free of red blood cells. Cells are resuspended in DPBS (Dulbecco's Phosphate Buffered Saline) (w.o. Ca^2+, Mg^2+) and the concentration adjusted to 1.4×10^6 cells/ml in HBSS (Hanks Balanced Salt solution) (w Ca^2+, Mg^2+) containing 0.1% BSA (Bovine Serum Albumin) and 5 mM glucose just prior to assay initiation. Titrated reference and test compounds are pre-mixed with HE (Hydroethidine) (10 μM final assay concentration) before addition to 96-well plates containing 2.5×10^5 cells. Following 40 min incubation at rt, changes in the respiratory burst is estimated by measuring fluorescence at 579 nm (excitation: 485 nm) using an Envision plate reader.
Test compound titration curves are fitted to a four-parameter sigmoidal curve after normalizing the effect of the test compound to the effect of the positive control (5×10^−7 M PEP0005). Rel EC50 denotes the concentration of test compound producing an effect that is midway between the fitted top and bottom. Abs EC50 is the concentration of test compound that provokes a response corresponding to 50% of the maximal effect associated with the positive control (5×10^−7 M PEP0005).

Experimental findings from patent US9422309B2, “3-O-heteroaryl-ingenol” (LEO LABORATORIES LIMITED, priority 2012, dated 2016) are described below.

One may read the EC50 as the concentration at which the effect is half-maximal.

As to `CC1=C[C@]23C(=O)[C@@H](C=C(CO)[C@@H](O)[C@]2(O)[C@H]1Oc1cccc(C(F)(F)F)n1)[C@H]1[C@@H](C[C@H]3C)C1(C)C` [Compound 117, 3-O-(6-(Trifluoromethyl)-2-pyridyl)-ingenol], the EC50 in the experiment on HeLa cells was ≥ 350000 nM; in experiment [1], ≥ 100 nM; in experiment [2], ≥ 100 nM.
With `CC1=C[C@]23C(=O)[C@@H](C=C(CO)[C@@H](O)[C@]2(O)[C@H]1Oc1ncccc1C(F)(F)F)[C@H]1[C@@H](C[C@H]3C)C1(C)C` [Compound 118, 3-O-(3-(Trifluoromethyl)-2-pyridyl)-ingenol], the half-maximal effective concentration (EC50) in the experiment on HeLa cells was < 150000 nM; in experiment [1], 20 to 100 nM; in experiment [2], < 20 nM.
The matching figures for `CC1=C[C@]23C(=O)[C@@H](C=C(CO)[C@@H](O)[C@]2(O)[C@H]1Oc1nccc2ccccc12)[C@H]1[C@@H](C[C@H]3C)C1(C)C` [Compound 119, 3-O-(1-Isoquinolyl)-ingenol]: 150000 to 350000 nM, < 20 nM and 20 to 100 nM.
The matching figures for `CC1=C[C@]23C(=O)[C@@H](C=C(CO)[C@@H](O)[C@]2(O)[C@H]1Oc1nccn1C1CCCC1)[C@H]1[C@@H](C[C@H]3C)C1(C)C` [Compound 120, 3-O-(1-Cyclopentylimidazol-2-yl)-ingenol]: 150000 to 350000 nM, < 20 nM and < 20 nM.
On to `CC1=C[C@]23C(=O)[C@@H](C=C(CO)[C@@H](O)[C@]2(O)[C@H]1Oc1nccc2ccsc12)[C@H]1[C@@H](C[C@H]3C)C1(C)C` [Compound 123, 3-O-(Thieno[2,3-c]pyridine-7-yl)-ingenol], for which the 50% effective concentration (EC50) was ≥ 350000 nM in the experiment with HeLa cells, < 20 nM in experiment [1] and 20 to 100 nM in experiment [2].
The matching figures for `CC1=C[C@]23C(=O)[C@@H](C=C(CO)[C@@H](O)[C@]2(O)[C@H]1Oc1ncccc1C)[C@H]1[C@@H](C[C@H]3C)C1(C)C` [Compound 124, 3-O-(3-Methyl-2-pyridyl)-ingenol]: ≥ 350000 nM, ≥ 100 nM and ≥ 100 nM.
`CC1=C[C@]23C(=O)[C@@H](C=C(CO)[C@@H](O)[C@]2(O)[C@H]1Oc1noc2cc(Cl)ccc12)[C@H]1[C@@H](C[C@H]3C)C1(C)C` [Compound 125, 3-O-(6-Chloro-1,2-benzoxazol-3-yl)-ingenol]: the concentration giving a half-maximal response (EC50) in the experiment with HeLa cells was < 150000 nM; in experiment [1], < 20 nM; in experiment [2], < 20 nM.
Consider `CC1=C[C@]23C(=O)[C@@H](C=C(CO)[C@@H](O)[C@]2(O)[C@H]1Oc1nccc2sccc12)[C@H]1[C@@H](C[C@H]3C)C1(C)C` [Compound 127, 3-O-(Thieno[3,2-c]pyridine-4-yl)-ingenol], for which the concentration giving a half-maximal response (EC50) with HeLa cells is 150000 to 350000 nM; in experiment [1], 20 to 100 nM; in experiment [2], 20 to 100 nM.
For `CC1=C[C@]23C(=O)[C@@H](C=C(CO)[C@@H](O)[C@]2(O)[C@H]1Oc1noc2cccc(F)c12)[C@H]1[C@@H](C[C@H]3C)C1(C)C` [Compound 128, 3-O-(4-Fluoro-1,2-benzoxazol-3-yl)-ingenol], the 50% effective concentration (EC50) in the experiment on HeLa cells is 150000 to 350000 nM; in experiment [1] it was < 20 nM; in experiment [2], < 20 nM.
Take `COc1cccnc1O[C@H]1C(C)=C[C@]23C(=O)[C@@H](C=C(CO)[C@@H](O)[C@]12O)[C@H]1[C@@H](C[C@H]3C)C1(C)C` [Compound 129, 3-O-(3-Methoxy-pyridin-2-yl)-ingenol]: the half-maximal effective concentration (EC50) in the experiment with HeLa cells is ≥ 350000 nM; in experiment [1] it was ≥ 100 nM; in experiment [2] it was ≥ 100 nM.
Turning to `COc1ccc2onc(O[C@H]3C(C)=C[C@]45C(=O)[C@@H](C=C(CO)[C@@H](O)[C@]34O)[C@H]3[C@@H](C[C@H]5C)C3(C)C)c2c1` [Compound 130, 3-O-(5-Methoxy-1,2-benzoxazol-3-yl)-ingenol], the figures for the concentration giving a half-maximal response (EC50) (in the experiment on HeLa cells; in experiment [1]; in experiment [2]) were 150000 to 350000 nM, < 20 nM and < 20 nM, respectively.
Turning to `CC1=C[C@]23C(=O)[C@@H](C=C(CO)[C@@H](O)[C@]2(O)[C@H]1Oc1noc2ccc(Cl)cc12)[C@H]1[C@@H](C[C@H]3C)C1(C)C` [Compound 131, 3-O-(5-Chloro-1,2-benzoxazol-3-yl)-ingenol], the EC50 with HeLa cells was < 150000 nM; in experiment [1], < 20 nM; in experiment [2], < 20 nM.
For the molecule `COc1ccc2c(O[C@H]3C(C)=C[C@]45C(=O)[C@@H](C=C(CO)[C@@H](O)[C@]34O)[C@H]3[C@@H](C[C@H]5C)C3(C)C)noc2c1` [Compound 132, 3-O-(6-Methoxy-1,2-benzoxazol-3-yl)-ingenol], the figures for the EC50 (with HeLa cells; in experiment [1]; in experiment [2]) were ≥ 350000 nM, < 20 nM and < 20 nM, respectively.
With `CC1=C[C@]23C(=O)[C@@H](C=C(CO)[C@@H](O)[C@]2(O)[C@H]1Oc1noc(C(C)C)n1)[C@H]1[C@@H](C[C@H]3C)C1(C)C` [Compound 133, 3-O-(5-Isopropyl-1,2,4-oxadiazol-3-yl)-ingenol], the EC50 with HeLa cells is ≥ 350000 nM; in experiment [1], 20 to 100 nM; in experiment [2], 20 to 100 nM.
